Earlier results on 1 molecule are cited in patent EP2231118B2, “SUSPENSION COMPRISING NON-MICRONIZED EZETIMIBE MICRO-PARTICLES” (KRKA, tovarna zdravil, d.d., Novo mesto, priority 2007, dated 2009).

SMILES strings stand for the structures.

`O=C1[C@H](CC[C@H](O)c2ccc(F)cc2)[C@@H](c2ccc(O)cc2)N1c1ccc(F)cc1` [Ezetimibe, 1-(4-fluorophenyl)-3(R)-[3-(4-fluorophenyl)-3(S)-hydroxypropyl]-4(S)-(4-hydroxyphenyl)-2-azetidinone]: the solubility in water result is “practically insoluble”.
